From patent publication US12599136B2, “Substituted isophthalic acid diamides and their use as herbicides” (Bayer Aktiengesellschaft, priority 2020, dated 2026)

What was measured:
Type in all cases: in vivo
Abutilon theophrasti [1] = test: Pre-emergence herbicidal action against ABUTH; details: visual score after 3 weeks vs untreated controls
Outline: (§1)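 Greenhouse pots of sandy loam held seeds covered with soil, onto which the compound was applied before emergence. An aqueous suspension or emulsion of WP or EC was used at 600 to 800 l/ha with 0.2% wetting agent. Percent damage was judged visually at 3 weeks.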

Alopecurus myosuroides [2] = test: Pre-emergence herbicidal action against ALOMY; details: 80 g/ha; visual score after 3 weeks vs untreated controls
Outline: as §1

Amaranthus retroflexus [3] = test: Pre-emergence herbicidal action against AMARE; details: visual score after 3 weeks vs untreated controls
Outline: as §1

Echinochloa crus-galli [4] = test: Pre-emergence herbicidal action against ECHCG; details: 80 g/ha; visual score after 3 weeks vs untreated controls
Outline: as §1

Matricaria inodora [5] = test: Pre-emergence herbicidal action against MATIN; details: visual score after 3 weeks vs untreated controls
Outline: as §1

Pharbitis purpurea [6] = test: Pre-emergence herbicidal action against PHBPU; details: 80 g/ha; visual score after 3 weeks vs untreated controls
From the text: Seeds of monocotyledonous and dicotyledonous weed plants and crop plants are laid out in sandy loam soil in wood-fiber pots and covered with soil. The compounds of the invention, formulated in the form of wettable powders (WP) or as emulsion concentrates (EC), are then applied to the surface of the covering soil in the form of an aqueous suspension or emulsion at a water application rate equivalent to 600 to 800 l/ha, with addition of 0.2% wetting agent. After the treatment, the pots are placed in a greenhouse and kept under good growth conditions for the trial plants. The damage to the test plants is scored visually after a test period of 3 weeks by comparison with untreated controls (herbicidal activity in percent (%): 100% activity=the plants have died, 0% activity=like control plants). […] The tables below illustrate, in an illustrative manner, the post-emergence herbicidal action of the compounds of the invention, the herbicidal activity being stated in percent.

Digitaria sanguinalis = test: Pre-emergence herbicidal action against DIGSA
Outline: as §1

Polygonum convolvulus = test: Pre-emergence herbicidal action against POLCO; details: 80 g/ha
Outline: as §1

Setaria viridis [7] = test: Pre-emergence herbicidal action against SETVI
Outline: as §1

Viola tricolor [8] = test: Pre-emergence herbicidal action against VIOTR
Outline: as §1

Abutilon theophrasti [9] = test: Post-emergence herbicidal action against ABUTH
Outline: (§2)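 A WP or EC formulation diluted in water with 0.2% wetting agent was sprayed at 600 to 800 l/ha onto one-leaf-stage plants grown in sandy loam. About 3 weeks later, action was rated visually in percent, 100% being dead plants.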

Alopecurus myosuroides [10] = test: Post-emergence herbicidal action against ALOMY
Outline: as §2

Amaranthus retroflexus [11] = test: Post-emergence herbicidal action against AMARE; details: visual assessment about 3 weeks after treatment
Outline: as §2

Echinochloa crus-galli [12] = test: Post-emergence herbicidal action against ECHCG; details: 20 g/ha, visual assessment about 3 weeks after treatment
Outline: as §2

Matricaria inodora [13] = test: Post-emergence herbicidal action against MATIN; details: 20 g/ha, visual assessment about 3 weeks after treatment
Outline: as §2

Pharbitis purpurea [14] = test: Post-emergence herbicidal action against PHBPU; details: 20 g/ha, visual assessment about 3 weeks after treatment
Outline: as §2

Setaria viridis [15] = test: Post-emergence herbicidal action against SETVI; details: visual assessment about 3 weeks after treatment
Outline: as §2

Veronica persica [16] = test: Post-emergence herbicidal action against VERPE; details: 20 g/ha, visual assessment about 3 weeks after treatment
Outline: as §2

Viola tricolor [17] = test: Post-emergence herbicidal action against VIOTR
Outline: as §2

Veronica persica [18] = test: Pre-emergence herbicidal action against VERPE; details: 80 g/ha
Outline: as §1

| SMILES | Pre-emergence action against ABUTH (Abutilon theophrasti [1]; 20 g/ha) | Pre-emergence action against ABUTH (Abutilon theophrasti [1]; 80 g/ha) | Pre-emergence action against ALOMY (Alopecurus myosuroides [2]) | Pre-emergence action against AMARE (Amaranthus retroflexus [3]; 20 g/ha) | Pre-emergence action against AMARE (Amaranthus retroflexus [3]; 80 g/ha) | Pre-emergence action against MATIN (Matricaria inodora [5]; 80 g/ha) | Pre-emergence action against PHBPU (Pharbitis purpurea [6]) | Pre-emergence action against SETVI (Setaria viridis [7]; 80 g/ha) | Pre-emergence action against VIOTR (Viola tricolor [8]; 80 g/ha) | Post-emergence action against ABUTH (Abutilon theophrasti [9]; 5 g/ha) | Post-emergence action against ABUTH (Abutilon theophrasti [9]; 20 g/ha) | Post-emergence action against AMARE in % (Amaranthus retroflexus [11]; 5 g/ha) | Post-emergence action against AMARE in % (Amaranthus retroflexus [11]; 20 g/ha) | Post-emergence action against ECHCG in % (Echinochloa crus-galli [12]) | Post-emergence action against PHBPU in % (Pharbitis purpurea [14]) | Post-emergence action against SETVI in % (Setaria viridis [15]; 20 g/ha) | Post-emergence action against VERPE in % (Veronica persica [16]) | Post-emergence action against VIOTR in % (Viola tricolor [17]; 5 g/ha) | Post-emergence action against VIOTR in % (Viola tricolor [17]; 20 g/ha) | also measured |
| --- | --- | --- | --- | --- | --- | --- | --- | --- | --- | --- | --- | --- | --- | --- | --- | --- | --- | --- | --- | --- |
| CCN(C(=O)c1c(C(F)(F)F)ccc(C(=O)Nc2nnnn2C)c1Cl)C1CC1 [Example 1-136] | 90% | 100% | 100% | 90% | 100% | 100% | 90% | 100% | 100% | 90% | 100% | 100% | 100% | 90% | 80% | 100% | 80% | 100% | 100% | Pre-emergence action against ECHCG (Echinochloa crus-galli [4]): 90%; Pre-emergence action against MATIN (Matricaria inodora [5]; 20 g/ha): 90%; Pre-emergence action against DIGSA (Digitaria sanguinalis; 20 g/ha): 90%; Pre-emergence action against DIGSA (Digitaria sanguinalis; 80 g/ha): 100%; Pre-emergence action against POLCO (Polygonum convolvulus): 80%; Pre-emergence action against SETVI (Setaria viridis [7]; 20 g/ha): 90%; Pre-emergence action against VIOTR (Viola tricolor [8]; 20 g/ha): 100%; Post-emergence action against ALOMY (Alopecurus myosuroides [10]; 5 g/ha): 80%; Post-emergence action against ALOMY (Alopecurus myosuroides [10]; 20 g/ha): 90%; Post-emergence action against MATIN in % (Matricaria inodora [13]): 90% |
| CCN(CC)C(=O)c1c(Br)ccc(C(=O)Nc2nnnn2C)c1Cl [Example 1-200] | 90% | 100% | 100% | 90% | 100% | 100% | 80% | 100% | 100% | 80% | 90% | 100% | 100% | 100% | 90% | 90% | 90% | 80% | 80% | Pre-emergence action against VERPE (Veronica persica [18]): 100%; Post-emergence action against SETVI in % (Setaria viridis [15]; 5 g/ha): 80% |
